Results reported in patent publication US10912741B2, “Prevention of liver cancer with safranal-based formulations” (United Arab Emirates University, priority 2019, dated 2021).

Key:
[1] = tested on: myeloperoxidase (MPO); assay: Myeloperoxidase activity in liver homogenate, DEN/2-AAF hepatocarcinogenesis model; format: in vivo, albino Wistar rats; details: mean±SEM, 8 rats
Method: The experimental hepatocarcinogenesis model was developed according to a protocol by […] et al. that was adapted for our purposes. To initiate and promote hepatocarcinogenesis, diethylnitrosamine (DEN) and 2-acetylaminofluorene (2-AAF) were used, respectively. For hepatocarcinogenesis initiation in this model, a single DEN dose (200 mg/kg b.wt.) dissolved in saline was injected intraperitoneally. After initiation, all rats underwent one period of 5-days fasting, as mitotic proliferative stimuli. To promote hepatocarcinogenesis, 2-acetylaminofluorene (2-AAF) was introduced in the form of six daily intragastric doses (30 mg/kg in 1% Tween 80); two weeks after DEN treatment. […] at doses of 25 mg/kg by weight (b.wt.) and 50 mg/kg b.wt, was administrated orally to rats. These doses have been reported to suppress chemically-induced oxidative damage in rats. A total of 40 adult male albino Wistar rats were randomly divided into […] (n=8) and were subjected to different treatments. Group 1 (control) was orally administered distilled water (5 ml/kg b.wt.) throughout the experimental duration and were injected with a single dose of saline. Group 2 ([…] only) was subjected to a safranal dose (50 mg/kg b.wt.) through oral administration for the duration of the experimental period. Hepatocarcinogenesis was induced by DEN and promoted by 2-AAF, as reported previously, in group 3 (HCC). […] Glutathione (GSH) content was determined by analyzing liver homogenates, according to the method of Van Dooran et al. The assay depends on measuring yellow 5-thiol-2-nitrobenzoate absorbance at 412 nm. Glutathione-S-transferase (GST) activity was determined using the method of Habig et al. GST catalyzes the conjugation of GSH thiol group with 1-Chloro-2,4-dinitrobenzene (CDNB), which can be measured by determining the increase in absorbance at 340 nm. […] CAT decomposes hydrogen peroxide (H2O2) to oxygen and water; therefore, the activity of CAT was evaluated according to by the exponential decomposition of H2O2 at 240 nm. […] UV-160-Shimadzu recording spectrophotometer was used to record absorbances. […]

[2] = tested on: TNF-α; assay: TNF-α level in serum by ELISA; format: in vivo, albino Wistar rats
Method: (§1) The experimental hepatocarcinogenesis model was developed according to a protocol by Espandiaria et al. that was adapted for our purposes. To initiate and promote hepatocarcinogenesis, diethylnitrosamine (DEN) and 2-acetylaminofluorene (2-AAF) were used, respectively. For hepatocarcinogenesis initiation in this model, a single DEN dose (200 mg/kg b.wt.) dissolved in saline was injected intraperitoneally. After initiation, all rats underwent one period of 5-days fasting, as mitotic proliferative stimuli. To promote hepatocarcinogenesis, 2-acetylaminofluorene (2-AAF) was introduced in the form of six daily intragastric doses (30 mg/kg in 1% Tween 80); two weeks after DEN treatment.
(§2) Safranal at doses of 25 mg/kg by weight (b.wt.) and 50 mg/kg b.wt, was administrated orally to rats. These doses have been reported to suppress chemically-induced oxidative damage in rats. A total of 40 adult male albino Wistar rats were randomly divided into […] (n=8) and were subjected to different treatments. Group 1 (control) was orally administered distilled water (5 ml/kg b.wt.) throughout the experimental duration and were injected with a single dose of saline. […]
TNF-α level in serum was quantitatively measured using Enzyme-Linked Immunosorbent Assay (ELISA), according to the manufacturer instructions (ELISA kits (R&D Systems), Minnesota, USA. Results are presented in picograms/milligrams.

[3] = tested on: HeLa cells; details: reported in the background; cited from earlier work
[4] = tested on: alveolar human lung cancer A549; details: A549 cell line, reported in the background; cited from earlier work
[5] = tested on: foci of altered hepatocytes (FAH); assay: Histopathology (H&E) of liver, foci of altered hepatocytes; format: in vivo, albino Wistar rats
Method: as §1
as §2, with “saline. Group 2 (Safranal only) was subjected to a safranal dose (50 mg/kg b.wt.) through oral administration for the duration of the experimental period.” for “saline.”

CC1=C(C=O)C(C)(C)CC=C1 [Safranal, 2,6,6-trimethylcyclohexa-1,3-diene-1-carbaldehyde]
MPO ([1]; HCC (DEN/2-AAF) rats + safranal high dose 50 mg/kg b.wt. oral, 12 weeks): 31.54 ± 2.4 milliunit/mg protein
MPO ([1]; HCC (DEN/2-AAF) rats + safranal low dose 25 mg/kg b.wt. oral, 12 weeks): 27.47 ± 1.77 milliunit/mg protein
MPO ([1]; safranal alone 50 mg/kg b.wt. oral, no DEN (group 2)): 32.61 ± 1.61 milliunit/mg protein
TNF-α level in serum ([2]; low/high doses of safranal after DEN exposure (groups 4-5)): significant reduction in TNF-α expression
TNF-α level in serum ([2]; safranal alone (group 2), vs control group): no significant impact
growth of HeLa cells [3]: inhibit the growth of HeLa cells
apoptosis [4]: induce apoptosis
number and size of hepatocellular nodules (FAH) ([5]; protective groups, DEN-2-AAF rats + low/high doses of safranal (25/50 mg/kg b.wt.)): remarkably decrease in number and size
hepatocellular nodules (FAH) in liver sections ([5]; treatment with safranal alone (group 2, 50 mg/kg b.wt.)): abolished such hepatocellular nodules almost completely
